Data on 1 molecule can be found in patent US8476449B2, “Radioactive iodine labeled organic compound or salt thereof” (Nihon Medi-Physics Co., Ltd., priority 2010, dated 2013).

The target of this experiment is T1, Aβ42 aggregate (Homo sapiens, UniProt P05067).
T1 construct: Aβ (1-42) peptide; purchased Peptide Institute, Inc
The experiment in a line: Evaluation experiment of binding to amyloid β (filter radioactivity). The settings on record: Aβ42 aggregate 30 nmol/L, incubation 3 hours. The procedure:
0.5 mg of Aβ (1-42) peptide (purchased from Peptide Institute, Inc.) was dissolved in 2 mL of a PBS buffer containing 1 mmol/L of EDTA and incubated at 37° C. for 42 hours, thus preparing an Aβ42 aggregate. A glass tube was charged with a 10 vol % ethanol aqueous solution (900 μL), Aβ42 aggregate (50 μL, final concentration 30 nmol/L), and radioactive iodine-labeled compound 1, radioactive iodine-labeled compound 2, or radioactive iodine-labeled compound 3 (each 50 μL, 0.018-0.097 μCi), and incubation was carried out for 3 hours. B/F separation was carried out using a cell harvester (Brandel, M-24), and the radioactivity on the filter was measured in a γ counter. The proportion (%) of the radioactivity count on the filter relative to the radioactivity count of each sample used was determined, and binding of each compound to the Aβ42 aggregate was evaluated.
As a control, 4-dimethylamino-4′-iodochalcone (hereinafter, called a chalcone derivative) was prepared in accordance with a method described in the literature (Ono et al., Bioorg Med Chem, 15, 6802-6809, 2007), and the same experiment was carried out (radioactivity count in sample: […]-0.37 kBq (0.023-0.01 μCi)).

T1 sequence (P05067 672-713 limits assumed): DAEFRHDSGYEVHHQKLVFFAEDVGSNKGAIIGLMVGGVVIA

Turning to `CN(C)c1ccc(/C=C/C(=O)c2ccc(I)cc2)cc1` [chalcone derivative, 4-dimethylamino-4′-iodochalcone, reference compound], the “Binding to the Aβ42 aggregate (proportion of radioactivity count on the filter)” value is “exhibited binding to the Aβ42 aggregate”.
